Values joined by “and” are separate entries in the source; they are usually repeats but may differ in a detail not shown here. Equal entries are not always repeated.
Tests used:
[1] = Phase I trial, safety and toxicity assessment
advanced solid tumors = test: Phase I trial, tumor response (RECIST); assay type: in vivo, human
Method: Tumor responses were assessed using RECIST every 2 cycles.

[2] = tested on: cleaved cytokeratin 18 (cCK18); test: Phase I trial, serum M30 assay; assay type: in vivo, human
Method: Serum levels of cleaved cytokeratin 18 (cCK18) were assessed using the M30 assay and serum levels of total cytokeratin 18 (CK18) were assessed using the M65 assay (Perviva A.B., Sweden). Assessments of other tumor-specific markers were also evaluated per standard of care.
Given the heterogeneity of the tumor types in the enrolled patients, no widely used biomarker was available to uniformly assay all patient samples. In particular, the serum M30 assay is able to detect a caspase-cleaved form of cytokeratin-18 that occurs during apoptosis, which is useful in a heterogeneous study of solid tumors because most solid tumors express cytokeratin-18. The M30 sandwich ELISA has been used extensively in clinical trials as biomarkers of cell death induced by a variety of different cancer chemotherapeutic agents in a spectrum of different solid tumors. In addition to the serum M30 assay, the M65 sandwich ELISA assay, which has also been used in clinical studies to detect increases in total cytokeratin 18 that can occur with tumor necrosis and disease progression, was used to differentiate tumor apoptosis from necrosis.

human MDR1 = human MDR1 (Homo sapiens, UniProt P08183); settings: at 200 micromolar
[3] = Phase I trial, plasma pharmacokinetics of oral ONC201; settings: for AUC(0-t): AUClast; for Vd/F: Vz/F
[4] = tested on: human colon cancer cell line (HCT116), breast tumor cell line (MDA-MB-231), human primary glioblastoma cell line (U87); test: Cell viability, tumor cells (FIG. 1)
[5] = Pat # 1, NSCLC, 125 mg every three weeks, dose escalation phase
[6] = Pat # 2, Appendiceal adenocarcinoma, 250 mg every three weeks, dose escalation phase
[7] = Pat # 3, Uterine cancer, 375 mg every three weeks, dose escalation phase
[8] = Pat # 4, Renal cancer, 500 mg every three weeks, dose escalation phase
[9] = Pat # 5, Breast cancer, 625 mg every three weeks, dose escalation phase
[10] = Pat # 6, Prostate adenocarcinoma, 625 mg every three weeks, dose escalation phase
[11] = Pat # 7, Small cell lung cancer, 625 mg every three weeks, dose escalation phase
[12] = Pat # 8, Colon adenocarcinoma, 625 mg every three weeks, dose escalation phase
[13] = Pat # 9, Spindle cell sarcoma, 625 mg every three weeks, dose escalation phase
[14] = Pat # 10, Ovarian, 625 mg every three weeks, dose escalation phase
[15] = Pat # 11, Uterine cancer, 625 mg every three weeks, expansion phase
[16] = Pat # 13, Ovarian cancer, 625 mg every three weeks, expansion phase
[17] = Pat # 14, Gall bladder cancer, 625 mg every three weeks, expansion phase
[18] = Pat # 15, Desmoplastic small round cell tumor (DSRCT), 625 mg every three weeks, expansion phase
[19] = Pat # 16, Colon cancer, 625 mg every three weeks, expansion phase
[20] = Pat # 17, Prostate adenocarcinoma, 625 mg every three weeks, expansion phase
[21] = Pat # 18, Ovarian cancer, 625 mg every three weeks, expansion phase
[22] = Pat # 19, Prostate adenocarcinoma, 625 mg every three weeks, expansion phase
[23] = Pat # 20, Uterine Cancer, 625 mg every three weeks, expansion phase
[24] = N=6 patients receiving 625 mg ONC201 every three weeks
[25] = human, in vivo, 625 mg, Mean, N=6 patients receiving 625 mg ONC201 every three weeks
[26] = human, in vivo, 625 mg, Median, N=6 patients receiving 625 mg ONC201 every three weeks
[27] = human, in vivo, 625 mg, Geo. Mean, N=6 patients receiving 625 mg ONC201 every three weeks

Chain of human MDR1 (P08183 whole entry): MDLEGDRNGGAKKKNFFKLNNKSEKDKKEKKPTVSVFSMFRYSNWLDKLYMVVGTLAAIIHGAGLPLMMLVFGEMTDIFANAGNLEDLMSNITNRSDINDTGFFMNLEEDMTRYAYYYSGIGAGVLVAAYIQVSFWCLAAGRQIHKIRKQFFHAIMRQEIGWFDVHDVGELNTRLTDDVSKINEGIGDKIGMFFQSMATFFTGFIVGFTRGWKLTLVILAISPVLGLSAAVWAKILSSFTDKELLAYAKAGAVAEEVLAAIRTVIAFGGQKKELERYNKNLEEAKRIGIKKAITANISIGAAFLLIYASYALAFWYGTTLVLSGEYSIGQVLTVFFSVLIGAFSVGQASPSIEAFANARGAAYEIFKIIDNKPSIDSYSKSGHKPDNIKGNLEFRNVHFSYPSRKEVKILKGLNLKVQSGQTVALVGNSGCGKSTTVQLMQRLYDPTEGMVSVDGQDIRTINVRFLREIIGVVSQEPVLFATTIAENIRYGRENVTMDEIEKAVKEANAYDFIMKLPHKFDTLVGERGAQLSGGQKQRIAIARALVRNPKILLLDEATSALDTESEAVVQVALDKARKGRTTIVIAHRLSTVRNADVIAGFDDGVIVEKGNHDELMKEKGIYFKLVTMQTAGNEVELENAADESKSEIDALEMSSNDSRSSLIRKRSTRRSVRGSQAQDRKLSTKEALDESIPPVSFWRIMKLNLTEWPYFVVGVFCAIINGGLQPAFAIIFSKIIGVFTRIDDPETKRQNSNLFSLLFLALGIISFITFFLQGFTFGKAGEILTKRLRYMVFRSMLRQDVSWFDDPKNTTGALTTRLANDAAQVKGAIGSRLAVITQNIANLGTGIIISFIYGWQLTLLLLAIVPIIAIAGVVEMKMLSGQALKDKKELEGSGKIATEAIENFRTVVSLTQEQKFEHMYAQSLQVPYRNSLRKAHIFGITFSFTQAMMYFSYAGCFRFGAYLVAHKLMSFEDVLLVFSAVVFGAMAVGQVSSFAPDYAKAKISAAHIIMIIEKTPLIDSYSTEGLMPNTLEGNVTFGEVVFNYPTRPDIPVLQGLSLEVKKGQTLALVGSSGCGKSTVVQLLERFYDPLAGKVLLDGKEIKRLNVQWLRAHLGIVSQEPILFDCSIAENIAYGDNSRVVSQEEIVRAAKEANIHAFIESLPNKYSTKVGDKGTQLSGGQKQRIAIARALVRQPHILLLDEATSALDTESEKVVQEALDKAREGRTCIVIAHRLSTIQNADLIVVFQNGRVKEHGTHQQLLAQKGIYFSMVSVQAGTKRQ

Cc1ccccc1CN1C(=O)C2=C(CCN(Cc3ccccc3)C2)N2CCN=C12 [ONC201, 7-benzyl-4-(2-methylbenzyl)-2,4,6,7,8,9-hexahydroimidazo [1,2-a]pyrido[3,4-e]pyrimidin-5(1H)-one]
only adverse event possibly attributed to ONC201, expansion phase ([1]; 10 patients, 625 mg every 3 weeks): vomiting in one patient
only adverse event possibly attributed to ONC201, dose escalation phase ([1]; 10 patients, 125-625 mg every 3 weeks): low grade fever in one patient
Adverse Events Grade 1 [1, 5]: Fever
Adverse Events Grade 2-4 [1, 5]: 0
Adverse Events Grade 1 [1, 6]: 0
Adverse Events Grade 2-4 [1, 6]: 0
Adverse Events Grade 1 [1, 7]: 0
Adverse Events Grade 2-4 [1, 7]: 0
Adverse Events Grade 1 [1, 8]: 0
Adverse Events Grade 2-4 [1, 8]: 0
Adverse Events Grade 1 [1, 9]: 0
Adverse Events Grade 2-4 [1, 9]: 0
Adverse Events Grade 1 [1, 10]: 0
Adverse Events Grade 2-4 [1, 10]: 0
Adverse Events Grade 1 [1, 11]: 0
Adverse Events Grade 2-4 [1, 11]: 0
Adverse Events Grade 1 [1, 12]: 0
Adverse Events Grade 2-4 [1, 12]: 0
Adverse Events Grade 1 [1, 13]: 0
Adverse Events Grade 2-4 [1, 13]: 0
Adverse Events Grade 1 [1, 14]: 0
Adverse Events Grade 2-4 [1, 14]: 0
Adverse Events Grade 1 [1, 15]: 0
Adverse Events Grade 2-4 [1, 15]: 0
Adverse Events Grade 1 ([1]; Pat # 12, Uterine cancer, 625 mg every three weeks, expansion phase): 0
Adverse Events Grade 1 [1, 16]: Vomiting
Adverse Events Grade 2-4 [1, 16]: 0
Adverse Events Grade 1 [1, 17]: 0
Adverse Events Grade 2-4 [1, 17]: 0
Adverse Events Grade 1 [1, 18]: 0
Adverse Events Grade 2-4 [1, 18]: 0
Adverse Events Grade 1 [1, 19]: 0
Adverse Events Grade 2-4 [1, 19]: 0
Adverse Events Grade 1 [1, 20]: 0
Adverse Events Grade 2-4 [1, 20]: 0
Adverse Events Grade 1 [1, 21]: 0
Adverse Events Grade 2-4 [1, 21]: 0
Adverse Events Grade 1 [1, 22]: 0
Adverse Events Grade 2-4 [1, 22]: 0
Adverse Events Grade 1 [1, 23]: 0
Adverse Events Grade 2-4 [1, 23]: 0
drug-related adverse events ([1]; oral 125 to 625 mg every 3 weeks): No Grade >1 drug-related adverse events occurred
recommended phase II dose (RP2D) ([1]; oral, once every 3 weeks): 625 mg
Laboratory studies and physical exams ([1]; phase I patients): did not reveal any drug-related abnormalities
cardiovascular assessments ([1]; phase I patients): no drug-related effects
Time on Study (advanced solid tumors; Pat # 1, NSCLC, 125 mg, 4 doses): 12 weeks
Time on Study (advanced solid tumors; Pat # 2, Appendiceal cancer, 250 mg, 4 doses): 12 weeks
Time on Study (advanced solid tumors; Pat # 3, Uterine cancer, 375 mg, 2 doses): 6 weeks
Time on Study (advanced solid tumors; Pat # 4, Renal cancer, 500 mg, 2 doses): 6 weeks
Time on Study (advanced solid tumors; Pat # 5, Breast cancer, 625 mg, 2 doses): 6 weeks
Time on Study (advanced solid tumors; Pat # 6, Prostate adenocarcinoma, 625 mg, 9 doses): 27 weeks
Time on Study (advanced solid tumors; Pat # 7, Small cell lung cancer, 625 mg, 2 doses): 6 weeks
Time on Study (advanced solid tumors; Pat # 8, Colon adenocarcinoma, 625 mg, 4 doses): 12 weeks
Time on Study (advanced solid tumors; Pat # 9, Spindle cell sarcoma, 625 mg, 2 doses): 6 weeks
Time on Study (advanced solid tumors; Pat # 10, Ovarian, 625 mg, 1 dose): 3 weeks
decrease of multiple nodes (advanced solid tumors; Patient #3, advanced clear cell endometrial cancer, mixed response with new nodes): > 30%
symptom relief (advanced solid tumors; Patient #4, renal cancer and bone metastasis with debilitating pain in the clavicle): relief from their clavicular pain
patients with stable disease (advanced solid tumors; dose escalation phase, 10 patients): Eight of 10
M30 Induction (>50%) ([2]; Pat # 1, NSCLC, 125 mg): No
M30 Induction (>50%) ([2]; Pat # 2, Appendiceal cancer, 250 mg): No
M30 Induction (>50%) ([2]; Pat # 3, Uterine cancer, 375 mg): Yes
M30 Induction (>50%) ([2]; Pat # 4, Renal cancer, 500 mg): No
M30 Induction (>50%) ([2]; Pat # 5, Breast cancer, 625 mg): Yes
M30 Induction (>50%) ([2]; Pat # 6, Prostate adenocarcinoma, 625 mg): Yes
M30 Induction (>50%) ([2]; Pat # 7, Small cell lung cancer, 625 mg): Yes
M30 Induction (>50%) ([2]; Pat # 8, Colon adenocarcinoma, 625 mg): Yes
M30 Induction (>50%) ([2]; Pat # 9, Spindle cell sarcoma, 625 mg): No
M30 Induction (>50%) ([2]; Pat # 10, Ovarian, 625 mg): No
number of patients with induction in the M30 assay ([2]; dose escalation phase, after a single dose, most often on day 21 post-treatment): Four
inhibitor of MDR1 (human MDR1): inhibitor
AUC, Min [3, 24]: 13868 h · ng/m
CL/F, Geo. Mean [3, 24]: 25.41 L/h
CL/F, Max [3, 24]: 45.07 L/h
CL/F, Mean [3, 24]: 27.19 L/h
CL/F, Median [3, 24]: 24.83 L/h
CL/F, Min [3, 24]: 14.03 L/h
Cmax, Max [3, 24]: 7470 ng/mL
Cmax, Min [3, 24]: 1530 ng/mL
Tlag, Max [3, 24]: 0.30 h
Tlag, Mean [3, 24]: 0.05 h
Tlag, Median [3, 24]: 0.00 h
Tlag, Min [3, 24]: 0.00 h
Tmax, Max [3, 24]: 3.95 h
Tmax, Min [3, 24]: 0.37 h
t1/2, Max [3, 24]: 12.55 h
t1/2, Min [3, 24]: 7.71 h
λZ, Geo. Mean [3, 24]: 0.073 h⁻¹
λZ, Max [3, 24]: 0.090 h⁻¹
λZ, Mean [3, 24]: 0.074 h⁻¹
λZ, Median [3, 24]: 0.072 h⁻¹
λZ, Min [3, 24]: 0.055 h⁻¹
concentration at 24 h ([3]; human, in vivo): 0.9 µM
Vd ([3]; human, in vivo, 625 mg): 381 L
AUC ([3]; human, in vivo, 625 mg, AUC, Geo. Mean, N=6 patients receiving 625 mg ONC201 every three weeks): 24600 ng·h/mL
AUC ([3]; human, in vivo, 625 mg, AUC, Mean, N=6 patients receiving 625 mg ONC201 every three weeks): 26300 ng·h/mL
AUC ([3]; human, in vivo, 625 mg, AUC, Median, N=6 patients receiving 625 mg ONC201 every three weeks): 25600 ng·h/mL
AUC(0-t) [3, 25]: 25500 ng·h/mL
AUC(0-t) [3, 26]: 24300 ng·h/mL
Cmax ([3]; human, in vivo, 625 mg, Cmax, Geo. Mean, N=6 patients receiving 625 mg ONC201 every three weeks): 2890 ng/mL
Cmax ([3]; human, in vivo, 625 mg, Cmax, Mean, N=6 patients receiving 625 mg ONC201 every three weeks): 3310 ng/mL
Cmax ([3]; human, in vivo, 625 mg, Cmax, Median, N=6 patients receiving 625 mg ONC201 every three weeks): 2720 ng/mL
AUC ([3]; human, in vivo, 625 mg, Mean AUC, top dose cohort (625 mg)): 26300 ng·h/mL
Tmax [3, 27]: 1.34 h
Tmax [3, 25]: 1.79 h
Tmax [3, 26]: 1.91 h
Vd/F [3, 27]: 348 L
Vd/F [3, 25]: 381 L
Vd/F [3, 26]: 404 L
Cmax ([3]; human, in vivo, 625 mg, mean Cmax, top dose cohort (625 mg), first dose): 3310 ng/mL
half-life ([3]; human, in vivo, 625 mg, mean t1/2, top dose cohort (625 mg)): 9.62 h
half-life ([3]; human, in vivo, 625 mg, t1/2, Geo. Mean, N=6 patients receiving 625 mg ONC201 every three weeks): 9.49 h
half-life ([3]; human, in vivo, 625 mg, t1/2, Mean, N=6 patients receiving 625 mg ONC201 every three weeks): 9.62 h
half-life ([3]; human, in vivo, 625 mg, t1/2, Median, N=6 patients receiving 625 mg ONC201 every three weeks): 9.6 h
Cmax ([3]; human, in vivo, Cmax, plasma, as quoted for the CYP margin): 9 µM
AUC ([3]; human, in vivo, po, 625 mg, AUC, oral ONC201, PK analysis): 25000 ng·h/mL
Cmax ([3]; human, in vivo, po, 625 mg, Cmax, 625 mg (RP2D) orally every 3 weeks): 1500 ng/mL to 7500 ng/mL and 3.9 µM to 19.4 µM
half-life ([3]; human, in vivo, po, 625 mg, half-life, oral ONC201, PK analysis): 9.6 h
dose at which plasma concentrations / systemic exposure (AUC, Cmax) saturated ([3]; oral, dose escalation 125-625 mg): 375 mg
viability at 5000 µg/mL ([4]; Homo sapiens, 72 h, read-out: viability of tumor cells): < 25%
viability of tumor cells ([4]; about 1-5 mg/mL compound (1), 72 hours): ≤ 50%
